The results in this text go back to ChEMBL document CHEMBL1150482, “Synthesis of the 4,5 diphosphonate analog of D,L-myo-inositol 4,5-diphosphate” (Bioorg Med Chem Lett, 1993).

Usually EC50 stands for the concentration giving half of the maximal effect.

This test in a line: Compound was tested for calcium mobilization using rat basophilic leukemia cells at concentration of 5 mM. Type of test: functional, cell-based. To be noted: RBL-1. (A change in cytosolic calcium serves as a functional read-out for many receptors and channels.)

Turning to `O=P(O)(O)C[C@@H]1[C@@H](O)[C@H](O)[C@H](O)[C@H](O)[C@H]1CP(=O)(O)O`, the concentration for a half-maximal effect (EC50) worked out at 70 µM.
